# Data: US6833456B2, “Indolyl-urea derivatives of thienopyridines useful as antiangiogenic agents, and methods for their use” (Agouron Pharmaceuticals, Inc., priority 2002, dated 2004)
# Values joined by “and” are separate entries in the source; they are usually repeats but may differ in a detail not shown here. Equal entries are not always repeated.
# What was measured:
# Mouse PK assay = assay type: in vivo, B6 female mice; conditions: po; for AUC / Cmax: female, B6, mouse, plasma, 50 mg/kg; for Cmax: p.o., read-out: Mouse Cmax, po ng-h/mL
# Outline: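 Plasma levels were measured by HPLC with UV detection after acetonitrile precipitation, using extracted standards, in blood taken up to 4 h (0.5, 1, 2, 4 h) post-dose. Dosing: 50 mg/kg orally or intraperitoneally to two groups of four female B6 mice, vehicle PEG 400:acidified H2O 30:70 suspension.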
# PDGFRβ = target: T1, PDGFRβ (Homo sapiens, UniProt P09619); assay: PAE-PDGFRβ phosphorylation in PAE-PDGFRB cells assay; assay type: cell-based; conditions: PAE cells overexpressing human PDGFRβ, PDGF-BB stimulated; read-out: PAE PDGFR autophos IC50
# T1 construct: expressed in transfected cells; host or cells: porcine aorta endothelial (PAE) cells
# Outline: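 PAE cells overexpressing human PDGFRβ, serum-starved 16 h (0.1% FBS), compound 1 h at 37° C (0.5% DMSO), then 1 μg/mL PDGF-BB with 2 mM Na3VO4 for 8 min. Receptor captured by anti-PDGFRβ, phosphotyrosine detected by HRP-PY20/TMB at 450 nm; IC50 by four-parameter fit.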
# [1] = tested on: human umbilical vein endothelial cells (HUVEC); assay: HUVEC+VEGF proliferation assay; assay type: cell-based; conditions: Homo sapiens, HUVEC, 72 h, VEGF 6 ng/mL, MTT
# Outline: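 HUVEC (passage 3-4), serum-starved 24 h in F12K + 1% FBS, were pre-treated with compound for 1 h (0.1% DMSO final). They were then stimulated with VEGF at 6 ng/mL final. Proliferation was measured after 72 h by MTT dye reduction (4 h), with absorbance read at 595 nm.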
# HUVEC = assay: bFGF HUVEC proliferation; assay type: cell-based, human; conditions: Homo sapiens, HUVEC, bFGF stimulated HUVEC
# T1 sequence (P09619 33-1106): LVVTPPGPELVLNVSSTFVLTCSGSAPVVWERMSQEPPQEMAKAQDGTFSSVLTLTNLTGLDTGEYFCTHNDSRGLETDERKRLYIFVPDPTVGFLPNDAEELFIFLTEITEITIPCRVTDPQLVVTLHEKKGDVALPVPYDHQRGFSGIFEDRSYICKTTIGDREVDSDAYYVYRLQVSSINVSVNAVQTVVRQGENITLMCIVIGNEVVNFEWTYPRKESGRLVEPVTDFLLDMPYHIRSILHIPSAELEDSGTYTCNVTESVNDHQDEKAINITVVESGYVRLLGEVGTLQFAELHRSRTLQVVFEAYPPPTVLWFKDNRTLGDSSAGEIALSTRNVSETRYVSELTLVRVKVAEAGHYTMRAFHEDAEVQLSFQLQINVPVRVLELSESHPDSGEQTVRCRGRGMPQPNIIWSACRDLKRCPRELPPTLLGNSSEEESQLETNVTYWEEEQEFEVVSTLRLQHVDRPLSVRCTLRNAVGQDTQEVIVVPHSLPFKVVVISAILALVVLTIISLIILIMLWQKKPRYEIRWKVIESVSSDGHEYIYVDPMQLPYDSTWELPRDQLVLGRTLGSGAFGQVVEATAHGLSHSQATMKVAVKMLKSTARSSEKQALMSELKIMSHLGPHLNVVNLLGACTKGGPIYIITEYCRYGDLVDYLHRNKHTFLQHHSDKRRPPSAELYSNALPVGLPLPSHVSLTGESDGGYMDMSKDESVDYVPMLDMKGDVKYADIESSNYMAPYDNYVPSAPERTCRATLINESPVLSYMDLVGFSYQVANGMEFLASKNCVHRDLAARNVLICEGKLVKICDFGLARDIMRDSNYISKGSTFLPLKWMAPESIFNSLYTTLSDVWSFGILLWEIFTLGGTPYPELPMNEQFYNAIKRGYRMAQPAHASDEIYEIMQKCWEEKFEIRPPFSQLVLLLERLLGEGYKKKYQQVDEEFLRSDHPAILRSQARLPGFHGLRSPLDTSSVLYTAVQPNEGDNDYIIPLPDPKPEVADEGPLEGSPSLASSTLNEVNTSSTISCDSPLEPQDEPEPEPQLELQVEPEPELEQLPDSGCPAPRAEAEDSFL
AUC (Mouse PK assay),Cmax (Mouse PK assay),"Mouse Cmin, po (Mouse PK assay)",IC50 (PDGFRβ),SMILES,IC50 [1],IC50 (HUVEC)
1850 ng·h/mL,1110 ng/mL,45 ng/mL,5.8 nM,"CNC(=O)n1c(C)cc2cc(Oc3ccnc4cc(C(=O)N5CC[C@@H](O)C5)sc34)ccc21 [Example 4n, 5-[2-(3R-Hydroxy-pyrrolidine-1-carbonyl)-thieno[3,2-b]pyridin-7-yloxy]-2-methyl-indole-1-carboxylic acid methylamide]",0.042 nM,–
10300 ng·h/mL,3950 ng/mL,408 ng/mL,84 nM and 99 nM,"CNC(=O)n1c(C)cc2cc(Nc3ccnc4cc(-c5nc(C(C)(C)O)cs5)sc34)ccc21 [Example 3a, 5-{2-[4-(1-Hydroxy-1-methyl-ethyl)-thiazol-2-yl]-thieno[3,2-b]pyridin-7-ylamino}-2-methyl-indole-1-carboxylic acid methylamide]",0.245 nM,–
5860 ng·h/mL,4650 ng/mL,4 ng/mL,116 nM and > 100 nM and 97 nM,"CNC(=O)n1c(C)cc2cc(Nc3ccnc4cc(C(=O)N5CCC[C@H]5COC)sc34)ccc21 [Example 1t, 5-(2-[(S)-2-(methoxymethyl)pyrrolidine-1-carbonyl]thieno[3,2-b]pyridin-7-ylamino)-2-methylindole-1-carboxylic acid methylamide]",–,–
1960 ng·h/mL,1100 ng/mL,19 ng/mL,14.1 nM,"C#CCNC(=O)n1c(C)cc2c(F)c(Oc3ccnc4cc(C(=O)N5CCC[C@H]5CO)sc34)ccc21 [Example 5e, 4-Fluoro-5-[2-(2S-hydroxymethyl-pyrrolidine-1-carbonyl)-thieno[3,2-b]pyridin-7-yloxy]-2-methyl-indole-1-carboxylic acid prop-2-ynylamide]",–,–
1100 ng·h/mL,371 ng/mL,43 ng/mL,274 nM,"Cc1cc2cc(Oc3ccnc4cc(C(=O)N5CC[C@H](O)C5)sc34)ccc2n1C(=O)NCCO [Example 9k, 5-[2-(3S-Hydroxy-pyrrolidine-1-carbonyl)-thieno[3,2-b]pyridin-7-yloxy]-2-methyl-indole-1-carboxylic acid (2-hydroxy-ethyl)-amide]",0.49 nM,–
1170 ng·h/mL,1010 ng/mL,19 ng/mL,57 nM and 96 nM and 61 nM and 41 nM,"CNC(=O)n1c(C)cc2cc(Nc3ccnc4cc(-c5nccn5C)sc34)ccc21 [Example 2a, 5-(2-[1-methyl-1H-imidazol-2-yl]thieno[3,2-b]pyridin-7-ylamino)-2-methylindole-1-carboxylic acid methylamide]",–,–
4630 ng·h/mL,2710 ng/mL,68 ng/mL,4 nM,"Cc1cc2cc(Oc3ccnc4cc(C(=O)N5CC[C@@H](O)C5)sc34)ccc2n1C(=O)NC1CC1 [Example 4p, 5-[2-(3R-Hydroxy-pyrrolidine-1-carbonyl)-thieno[3,2-b]pyridin-7-yloxy]-2-methyl-indole-1-carboxylic acid cyclopropylamide]",0.128 nM,–
2800 ng·h/mL,1900 ng/mL,10 ng/mL,856 nM and > 100 nM and 616 nM and 556 nM and 657 nM and 682 nM,"CNC(=O)n1c(C)cc2cc(Nc3ccnc4cc(C(=O)N5CCC[C@H]5CO)sc34)ccc21 [Example 2b, 5-(2-[(S)-2-(hydroxymethyl)pyrrolidine-1-carbonyl]thieno[3,2-b]pyridin-7-ylamino)-2-methylindole-1-carboxylic acid methylamide]",–,–
1630 ng·h/mL,302 ng/mL,125 ng/mL,29.1 nM,"C#CCNC(=O)n1c(C)c(Cl)c2c(F)c(Oc3ccnc4cc(C(=O)N5CC[C@H](O)C5)sc34)ccc21 [Example 6d, 3-Chloro-4-fluoro-5-[2-(3S-hydroxy-pyrrolidine-1-carbonyl)-thieno[3,2-b]pyridin-7-yloxy]-2-methyl-indole-1-carboxylic acid prop-2-ynylamide]",–,–
18 ng·h/mL,8 ng/mL,0 ng/mL,> 1000 nM,"Cc1cc2cc(Nc3ccnc4cc(C(=O)N5CC[C@H](O)C5)sc34)ccc2n1C(=O)NC1CC1 [Example 1k, 5-[2-(3S-Hydroxy-pyrrolidine-1-carbonyl)-thieno[3,2-b]pyridin-7-ylamino]-2-methyl-indole-1-carboxylic acid cyclopropylamide]",–,26.6 nM
8310 ng·h/mL,2760 ng/mL,313 ng/mL,16 nM and 18 nM and 15 nM,"C#CCNC(=O)n1c(C)cc2cc(Oc3ccnc4cc(C(=O)N5CCC[C@H]5COC)sc34)ccc21 [Example 4c, 5-(2-[(S)-2-(methoxymethyl)pyrrolidine-1-carbonyl]thieno[3,2-b]pyridin-7-yloxy)-2-methylindole-1-carboxylic acid prop-2-ynylamide]",–,–
2600 ng·h/mL,657 ng/mL,161 ng/mL,19 nM,"CO[C@H]1CCN(C(=O)c2cc3nccc(Oc4ccc5c(c4)cc(C)n5C(=O)NC4CC4)c3s2)C1 [Example 4h, 5-[2-(3S-Methoxy-pyrrolidine-1-carbonyl)-thieno[3,2-b]pyridin-7-yloxy]-2-methyl-indole-1-carboxylic acid cyclopropylamide]",0.65 nM,–
321000 ng·h/mL,11300 ng/mL,9020 ng/mL,15 nM,"C#CCNC(=O)n1c(C)cc2cc(Oc3ccnc4cc(C(=O)N5CC[C@@H](OC)C5)sc34)ccc21 [Example 4l, 5-[2-(3R-Methoxy-pyrrolidine-1-carbonyl)-thieno[3,2-b]pyridin-7-yloxy]-2-methyl-indole-1-carboxylic acid prop-2-ynylamide]",0.176 nM,–
15600 ng·h/mL,8840 ng/mL,112 ng/mL,14 nM,"C#CCNC(=O)n1c(C)cc2cc(Oc3ccnc4cc(C(=O)N5CC[C@H](OC)C5)sc34)ccc21 [Example 4f, 5-[2-(3S-Methoxy-pyrrolidine-1-carbonyl)-thieno[3,2-b]pyridin-7-yloxy]-2-methyl-indole-1-carboxylic acid prop-2-ynylamide]",0.057 nM,–
3620 ng·h/mL,2280 ng/mL,20 ng/mL,10.5 nM,"CNC(=O)n1c(C)cc2cc(Oc3ccnc4cc(C(=O)N5CC[C@H](OC)C5)sc34)ccc21 [Example 4g, 5-[2-(3S-Methoxy-pyrrolidine-1-carbonyl)-thieno[3,2-b]pyridin-7-yloxy]-2-methyl-indole-1-carboxylic acid methylamide]",0.139 nM,–
4060 ng·h/mL,1960 ng/mL,54 ng/mL,76 nM and 71 nM and 64 nM,"COC[C@@H]1CCCN1C(=O)c1cc2nccc(Oc3ccc4c(c3)cc(C)n4C(=O)NCC#CCO)c2s1 [Example 4d, 5-(2-[(S)-2-(methoxymethyl)pyrrolidine-1-carbonyl]thieno[3,2-b]pyridin-7-yloxy)-2-methylindole-1-carboxylic acid (4-hydroxybut-2-ynyl)amide]",–,–
18800 ng·h/mL,11100 ng/mL,252 ng/mL,142 nM and 125 nM,"Cc1cc2cc(Nc3ccnc4cc(-c5nc(C(C)(C)O)cs5)sc34)ccc2n1C(=O)NC1CC1 [Example 3b, 5-{2-[4-(1-Hydroxy-1-methyl-ethyl)-thiazol-2-yl]-thieno[3,2-b]pyridin-7-ylamino}-2-methyl-indole-1-carboxylic acid cyclopropylamide]",–,–
